Experimental data: patent US20240309016A1, “MACROCYCLIC HETEROCYCLE COMPOUNDS AND USE THEREOF” (TAKEDA PHARMACEUTICAL COMPANY LIMITED, priority 2023, published 2024)

molecular target: T1, human OX2 receptor (Homo sapiens, UniProt O43614); test: Measurement of orexin type 2 receptor agonist activity (Experimental Example 2; Fluo-4 AM calcium fluorescence, FDSS μCELL); format: cell-based; conditions: compound at 3 μM; CHO cells expressing human OX2 receptor; DMSO = 0%, 10 nM orexin A (human) = 100%
T1 construct: expressed in transfected cells
T1 sequence (O43614 1-444): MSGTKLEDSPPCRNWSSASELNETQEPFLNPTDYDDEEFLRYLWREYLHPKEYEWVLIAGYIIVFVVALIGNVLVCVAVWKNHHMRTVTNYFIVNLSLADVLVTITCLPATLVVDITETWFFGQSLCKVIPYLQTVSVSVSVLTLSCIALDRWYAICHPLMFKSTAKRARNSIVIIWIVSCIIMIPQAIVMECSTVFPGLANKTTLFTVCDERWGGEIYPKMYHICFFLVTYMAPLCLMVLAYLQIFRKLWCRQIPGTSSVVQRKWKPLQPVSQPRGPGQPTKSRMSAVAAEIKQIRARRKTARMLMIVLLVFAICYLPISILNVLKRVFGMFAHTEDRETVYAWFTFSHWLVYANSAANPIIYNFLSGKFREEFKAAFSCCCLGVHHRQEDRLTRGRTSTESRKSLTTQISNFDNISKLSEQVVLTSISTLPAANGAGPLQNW
Method in brief: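 Agonism was tested in CHO-K1 cells stably expressing human OX2 receptor (residues 1-444), loaded with Fluo-4 AM plus probenecid. Calcium fluorescence was recorded for 1 min 40 s after compound addition. Activity (%) was scaled between DMSO (0%) and 10 nM orexin A (100%) and reported at 3 μM compound.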

Row | OX2R agonist activity (3 μM, %) | Compound
1 | 101% | CCS(=O)(=O)N[C@H]1[C@@H](F)CN2C(=O)CCc3ccc(Cl)c(n3)Oc3cccc(c3F)C[C@@H]12 [Example 82, N-[(1R,2S,19aS)-11-chloro-2,20-difluoro-5-oxo-2,3,6,7,19,19a-hexahydro-1H,5H-12,8-(azeno)-14,18-(metheno)pyrrolo[2,1-h][1,9]oxazacycloheptadecin-1-yl]ethanesulfonamide]
2 | 108% | CS(=O)(=O)N[C@@H]1[C@@H]2Cc3cccc(c3)Oc3nc(ccc3C(F)F)[C@@H]3C[C@@H]3C(=O)N2CC1(F)F (single isomer, unassigned) [Example 107]
3 | 109% | CS(=O)(=O)N[C@@H]1[C@@H]2Cc3cccc(c3F)Oc3nc(ccc3C3CC3)CNC(=O)N2CC1(F)F [Example 88, N-[(15aS,16R)-7-cyclopropyl-17,17,20-trifluoro-1-oxo-2,3,15a,16,17,18-hexahydro-1H,15H-4,8-(azeno)-14,10-(metheno)pyrrolo[1,2-j][1,8,10]oxadiazacyclo-heptadecin-16-yl]methanesulfonamide]
4 | 95% | CS(=O)(=O)N[C@@H]1[C@@H]2Cc3cccc(c3F)Oc3nc(cs3)CNC(=O)N2CC1(F)F [Example 85, N-[(14aS,15R)-16,16,19-trifluoro-1-oxo-2,3,14a,15,16,17-hexahydro-1H,14H-4,7-(azeno)-9,13-(metheno)pyrrolo[1,2-i][1,3,7,9]oxathiadiazacyclo-hexadecin-15-yl]methanesulfonamide]

More lines, now with the values behind:

Row | Compound | OX2R agonist activity (3 μM, %)
5 | Cc1ccc2nc1Oc1cccc(c1F)C[C@H]1[C@@H](NS(=O)(=O)C3CC3)C(F)(F)CN1C(=O)NC2 [Example 23, N-[(15aS,16R)-17,17,20-trifluoro-7-methyl-1-oxo-2,3,15a,16,17,18-hexahydro-1H,15H-4,8-(azeno)-14,10-(metheno)pyrrolo[1,2-j][1,8,10]oxadiazacyclo-heptadecin-16-yl]cyclopropanesulfonamide] | 96%
6 | O=C1NCc2ccc(C(F)F)c(n2)Oc2cccc(c2F)C[C@H]2[C@@H](NS(=O)(=O)C3CC3)[C@@H](F)CN12 [Example 28, N-[(15aS,16R,17S)-7-(difluoromethyl)-17,20-difluoro-1-oxo-2,3,15a,16,17,18-hexahydro-1H,15H-8,4-(azeno)-10,14-(metheno)pyrrolo[1,2-j][1,8,10]oxadiazacyclo-heptadecin-16-yl]cyclopropanesulfonamide] | 94%
7 | CCS(=O)(=O)N[C@H]1[C@@H](F)CN2C(=O)NCc3ccc(Cl)c(c3)Oc3cccc(c3F)C[C@@H]12 [Example 39, N-[(15aS,16R,17S)-7-chloro-17,20-difluoro-1-oxo-2,3,15a,16,17,18-hexahydro-1H,15H-4,8:14,10-di(metheno)pyrrolo[1,2-j][1,8,10]oxadiazacyclo-heptadecin-16-yl]ethanesulfonamide] | 105%
8 | CCS(=O)(=O)N[C@H]1[C@@H](F)CN2C(=O)NCc3ccc(Cl)c(n3)Oc3cccc(c3)C[C@@H]12 [Example 47, N-[(15aS,16R,17S)-7-chloro-17-fluoro-1-oxo-2,3,15a,16,17,18-hexahydro-1H,15H-4,8-(azeno)-14,10-(metheno)pyrrolo[1,2-j][1,8,10]oxadiazacyclo-heptadecin-16-yl]ethanesulfonamide] | 92%
9 | Cc1cnc2nc1Oc1cccc(c1F)C[C@H]1[C@@H](NS(C)(=O)=O)C(F)(F)CN1C(=O)CO2 [Example 77, N-[(15aS,16R)-17,17,20-trifluoro-7-methyl-1-oxo-1,2,15a,16,17,18-hexahydro-15H-4,8-(azeno)-10,14-(metheno)pyrrolo[2,1-n][1,7,3,15]dioxadiazacyclo-heptadecin-16-yl]methanesulfonamide] | 104%
